From patent US7601686B2, “Hepatitis C virus inhibitors” (Bristol-Myers Squibb Company, priority 2005, dated 2009)

Columns and labels:
Assay type in all cases: biochemical
[1] = target: T1, porcine pancreatic elastase (PPE) (Sus scrofa, UniProt P00772); test: Specificity assay, porcine pancreatic elastase; settings: 2 h enzyme-inhibitor pre-incubation; read-out: PPE activity in the specificity assays
T1 construct: purchased Sigma
Description: (§1) The specificities of compounds of the present disclosure were determined against a variety of serine proteases: human neutrophil elastase (HNE), porcine pancreatic elastase (PPE) and human pancreatic chymotrypsin and one cysteine protease: human liver cathepsin B. In all cases a 96-well plate format protocol using colorimetric p-nitroaniline (pNA) substrate specific for each enzyme was used as described previously (PCT Patent Application No. WO 00/09543) with some modifications to the serine protease assays. All enzymes were purchased from Sigma while the substrates were from Bachem.
(§2) Each assay included a 2 h enzyme-inhibitor pre-incubation at room temperature followed by addition of substrate and hydrolysis to ˜30% conversion as measured on a Spectramax Pro microplate reader. Compound concentrations varied from 100 to 0.4 μM depending on their potency.
(§3) The final conditions for each assay were the same as those described in WO 03/099274, page 623.
(§4) The percentage of inhibition was calculated using the formula: [1−((UVinh−UVblank)/(UVctl−UVblank))]×100
(§5) A non-linear curve fit was applied to the inhibition-concentration data, and the 50% effective concentration (IC50) was calculated by the use of Excel XLfit software.

[2] = target: T2, HCV NS3/4A protease complex, J4L6S strain (Hepatitis C virus genotype 1b, UniProt O92972, C1454S/C1711G); test: FRET peptide assay to monitor HCV NS3/4A proteolytic activity (J4L6S strain)
T2 construct: recombinant HCV NS3/4A protease complex (amino acids 1027 to 1711) for these strains; inferred from pET21b vector and Ni-NTA purification; made in house; host or cells: Escherichia coli BL21 (DE3), pET21b
Description: (§6) Generation of Recombinant HCV NS3/4A Protease Complex
(§7) HCV NS3 protease complexes, derived from the BMS strain, H77 strain or J4L6S strain, were generated, as described below. These purified recombinant proteins were generated for use in a homogeneous assay (see below) to provide an indication of how effective compounds of the present disclosure would be in inhibiting HCV NS3 proteolytic activity.
(§8) Serum from an HCV-infected patient was obtained from Dr. T. Wright, San Francisco Hospital. An engineered full-length cDNA (compliment deoxyribonucleic acid) template of the HCV genome (BMS strain) was constructed from DNA fragments obtained by reverse transcription-PCR (RT-PCR) of serum RNA (ribonucleic acid) and using primers selected on the basis of homology between other genotype 1a strains. From the determination of the entire genome sequence, a genotype 1a was assigned to the HCV isolate according to the classification of Simmonds et al. (See P Simmonds, K A Rose, S Graham, S W Chan, F McOmish, B C Dow, E A Follett, P L Yap and H Marsden, J. Clin. Microbiol., 31(6), 1493-1503 (1993)). […]

[3] = target: T3, HCV NS3/4A protease complex, H77 strain (Hepatitis C virus genotype 1a, UniProt P27958, C1454S/C1711G); test: FRET peptide assay to monitor HCV NS3/4A proteolytic activity (H77 strain)
T3 construct: recombinant HCV NS3/4A protease complex (amino acids 1027 to 1711) for these strains; inferred from pET21b vector and Ni-NTA purification; made in house; host or cells: Escherichia coli BL21 (DE3), pET21b
Description: as §6, §7, §8

[4] = target: T4, human neutrophil elastase (HNE) (Homo sapiens, UniProt P08246); test: Specificity assay, human neutrophil elastase; settings: 2 h enzyme-inhibitor pre-incubation; read-out: HLE activity in the specificity assays
T4 construct: purchased Sigma
T4 sequence (P08246 30-267): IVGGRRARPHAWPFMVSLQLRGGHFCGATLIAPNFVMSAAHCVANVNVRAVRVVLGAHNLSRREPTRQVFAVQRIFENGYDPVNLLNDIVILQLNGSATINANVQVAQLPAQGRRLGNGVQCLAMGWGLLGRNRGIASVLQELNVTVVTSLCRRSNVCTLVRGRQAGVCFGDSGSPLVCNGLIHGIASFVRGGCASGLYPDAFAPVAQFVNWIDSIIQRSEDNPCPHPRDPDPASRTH
Description: as §1, §2, §3, §4, §5

T1 sequence (P00772 27-266): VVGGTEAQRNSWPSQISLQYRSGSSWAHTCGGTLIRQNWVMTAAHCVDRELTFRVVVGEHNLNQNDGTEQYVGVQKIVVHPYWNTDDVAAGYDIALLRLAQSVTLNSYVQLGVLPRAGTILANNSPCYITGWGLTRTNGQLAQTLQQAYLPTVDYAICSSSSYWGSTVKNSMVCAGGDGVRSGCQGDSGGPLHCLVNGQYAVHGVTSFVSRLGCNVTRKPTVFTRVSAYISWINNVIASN
T3 sequence (P27958 1027-1711 C1454S/C1711G, one chain of several): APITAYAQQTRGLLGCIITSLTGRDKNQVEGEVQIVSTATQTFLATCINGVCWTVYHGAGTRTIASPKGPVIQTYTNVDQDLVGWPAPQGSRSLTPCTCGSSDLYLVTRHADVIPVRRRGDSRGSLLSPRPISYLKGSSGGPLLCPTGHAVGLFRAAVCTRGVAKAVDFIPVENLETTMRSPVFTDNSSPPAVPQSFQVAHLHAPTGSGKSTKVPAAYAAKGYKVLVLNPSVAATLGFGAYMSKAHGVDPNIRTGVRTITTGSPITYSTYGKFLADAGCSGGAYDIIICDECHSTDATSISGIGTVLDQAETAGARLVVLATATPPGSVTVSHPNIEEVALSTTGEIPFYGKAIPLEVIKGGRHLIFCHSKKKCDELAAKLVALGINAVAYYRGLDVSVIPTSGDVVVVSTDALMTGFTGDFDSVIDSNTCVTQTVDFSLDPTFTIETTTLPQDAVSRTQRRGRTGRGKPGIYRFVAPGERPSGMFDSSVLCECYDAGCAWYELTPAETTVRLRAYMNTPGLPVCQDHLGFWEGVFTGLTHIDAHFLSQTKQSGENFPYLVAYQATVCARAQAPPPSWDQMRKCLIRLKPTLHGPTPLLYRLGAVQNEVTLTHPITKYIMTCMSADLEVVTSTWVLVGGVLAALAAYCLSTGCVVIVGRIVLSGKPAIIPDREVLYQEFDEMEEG
T2 sequence (O92972 1027-1711 C1454S/C1711G, one chain of several): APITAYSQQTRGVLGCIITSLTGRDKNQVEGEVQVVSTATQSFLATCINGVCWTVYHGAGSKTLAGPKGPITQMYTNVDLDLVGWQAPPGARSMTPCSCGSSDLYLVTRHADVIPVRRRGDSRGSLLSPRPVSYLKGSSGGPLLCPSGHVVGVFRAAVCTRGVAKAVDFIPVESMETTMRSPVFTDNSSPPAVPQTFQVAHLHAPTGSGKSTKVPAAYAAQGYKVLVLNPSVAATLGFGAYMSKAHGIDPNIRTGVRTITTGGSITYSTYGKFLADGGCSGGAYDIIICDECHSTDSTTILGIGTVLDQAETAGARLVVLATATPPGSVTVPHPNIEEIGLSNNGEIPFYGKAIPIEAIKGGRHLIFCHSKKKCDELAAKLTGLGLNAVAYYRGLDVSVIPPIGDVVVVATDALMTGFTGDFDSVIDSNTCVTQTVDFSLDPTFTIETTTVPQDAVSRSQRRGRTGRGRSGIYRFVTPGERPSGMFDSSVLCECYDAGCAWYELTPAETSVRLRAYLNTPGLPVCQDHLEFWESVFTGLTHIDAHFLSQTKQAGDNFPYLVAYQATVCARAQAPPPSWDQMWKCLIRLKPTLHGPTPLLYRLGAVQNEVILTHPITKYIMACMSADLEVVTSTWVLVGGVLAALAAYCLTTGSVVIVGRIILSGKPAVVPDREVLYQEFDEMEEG

## C=CC1CC1(NC(=O)[C@@H]1C[C@@H](NC(=O)c2cc(-c3ccccc3)nc3ccccc23)CN1C(=O)[C@@H](NC(=O)CC1CC1)C(C)(C)C)C(=O)NS(=O)(=O)C1CC1 (stereo partly shown) [Compound 9]
[1]
  IC50: > 100000 nM
[2]
  IC50: 30 nM
[3]
  IC50: 41 nM
[4]
  IC50: > 100000 nM
